Source: the NIST ThermoML archive (doi:10.1016/j.tca.2016.05.007)

Assay: molar heat capacity at constant pressure
Conditions: 101.33 kPa, Small (less than 1 g) adiabatic calorimetry

COc1ccc(C2(c3ccc(OC)c(C)c3)OC(=O)c3ccccc32)cc1C [3,3-bis(4-methoxy-3-methylphenyl)-1(3H)-isobenzofuranone]
molar heat capacity at constant pressure [J/K/mol]
Conditions	Crystal	Glass
122.17 K	213.95	–
122.52 K	–	216.46
124.01 K	216.41	–
124.36 K	–	219.13
125.87 K	218.89	–
126.22 K	–	221.66
127.75 K	221.61	–
128.1 K	–	224.36
129.65 K	224.19	–
129.99 K	–	227.11
131.57 K	226.74	–
131.9 K	–	229.75
133.5 K	229.52	–
133.83 K	–	232.44
135.45 K	232.5	–
135.78 K	–	234.99
137.41 K	235.25	–
137.74 K	–	237.67
139.4 K	237.93	–
139.72 K	–	240.4
141.4 K	240.84	–
141.72 K	–	243.28
143.41 K	243.44	–
143.74 K	–	246.09
145.45 K	246.17	–
145.77 K	–	248.92
147.5 K	249.06	–
147.82 K	–	251.76
149.57 K	252.1	–
149.89 K	–	254.31
151.66 K	254.85	–
151.97 K	–	257.37
153.77 K	257.6	–
154.07 K	–	260.38
155.89 K	260.26	–
156.2 K	–	263.17
158.03 K	263.29	–
158.33 K	–	266.05
160.19 K	265.94	–
160.48 K	–	269
162.37 K	268.95	–
162.64 K	–	272.01
164.56 K	271.82	–
164.81 K	–	275.02
166.77 K	274.83	–
167 K	–	277.98
169 K	277.76	–
169.19 K	–	280.78
171.25 K	280.87	–
171.4 K	–	283.98
173.51 K	283.67	–
173.62 K	–	286.89
175.79 K	286.71	–
175.85 K	–	289.88
178.09 K	289.96	293
180.35 K	–	296.49
180.41 K	293.2	–
182.62 K	–	299.4
182.75 K	296.08	–
184.9 K	–	302.23
185.1 K	299.36	–
187.19 K	–	305.37
187.47 K	302.25	–
189.49 K	–	308.6
189.86 K	305.36	–
191.81 K	–	311.72
192.26 K	308.64	–
194.14 K	–	314.93
194.69 K	311.89	–
196.48 K	–	318.26
197.13 K	315.34	–
198.84 K	–	321.49
199.32 K	317.71	–
201.2 K	–	324.99
201.85 K	321.03	–
203.58 K	–	328.08
204.39 K	324.18	–
205.97 K	–	331.65
206.95 K	328.02	–
208.37 K	–	334.98
209.51 K	331.38	–
210.79 K	–	338.72
212.09 K	334.57	–
213.22 K	–	342.02
214.68 K	337.96	–
215.66 K	–	345.52
217.29 K	341.78	–
218.12 K	–	349.05
219.9 K	345.52	–
220.58 K	–	352.67
222.52 K	348.92	–
223.06 K	–	355.96
225.16 K	352.6	–
225.55 K	–	359.74
227.81 K	355.97	–
228.02 K	–	362.84
